# Results as given in patent US9339034B2, “Use of thaxtomin for selective control of rice and aquatic based weeds” (MARRONE BIO INNOVATIONS, INC., priority 2009, dated 2016).
# Assays:
# [1] = system: TPL (transplanted 'M202' Japonica-type rice); assay: Greenhouse pot study, effect on crop growth, transplanted rice; type: in vivo; conditions: for effect on crop growth (rice): TPL
# CYI = assay: Greenhouse pot study, weed control; type: in vivo, Cyperus iria
# MAQ = assay: Greenhouse pot study, weed control; type: in vivo, Marsilea quadrifolia
# Description: (§1) The activity on susceptible and resistant biotypes of Scirpus mucronatus was somewhat weaker (70 to 75%) than that observed for other sedge weeds in this study.
# BYG = assay: Greenhouse pot study, weed control; type: in vivo, barnyardgrass
# EO2 = assay: Greenhouse pot study, weed control; type: in vivo, Echinochloa spp.
# Description: (§2) Moderate suppression (60%) was noted on Echinochloa colonum at 500 g a.i. per hectare.
# ECC = assay: Greenhouse pot study, weed control; type: in vivo, Echinochloa colonum
# Description: as §2
# MON = assay: Greenhouse pot study, weed control; type: in vivo, Monorhoria vaginalis
# DSA = assay: Greenhouse pot study, weed control; type: in vivo, Heteranthem limosa
# CPD = assay: Greenhouse pot study, weed control; type: in vivo, Cyperus difformis
# Description: as §2
# SCM = assay: Greenhouse pot study, weed control; type: in vivo, Scirpus mucronatus
# Description: as §1
# SPZ = assay: Greenhouse pot study, weed control; type: in vivo, Sphenoclea zeylanica
# WPL = assay: Greenhouse pot study, weed control; type: in vivo, Alisma-plamago aquatica
# Description: as §2
# WCN = assay: Greenhouse pot study, weed control; type: in vivo, Eleocharis dulcis
# Description: as §1
# [2] = system: most of the Echinochloa spp.; assay: Greenhouse pot study, weed control; type: in vivo; conditions: up to the highest rate tested; 1000 g a.i. per hectare
# Description: as §2
# transplanted rice = assay: First study, crop safety; type: in vivo; conditions: all rates tested (64 to 1000 g a.i. per hectare)
# direct-seeded rice = assay: First study, crop safety; type: in vivo; conditions: rates up to 750 g a.i. per hectare
# Echinochloa colonum = assay: First study, weed control; type: in vivo; conditions: 500-1000 g a.i. per hectare
# barnyardgrass = assay: First study, weed control; type: in vivo; conditions: 500-1000 g a.i. per hectare
# Cyperus sp = assay: Pot study, spray of pure thaxtomin A solutions, % control; type: in vivo, smallflower umbrella sedge; Cyperus diiformis
# Description: (§3) A pot study was conducted to test the phytotoxicity of thaxtomin A on broadleaved, sedge and grass weeds. Seeds of two most common broadleaf (redstem; Ammannia spp. and common waterplantain; Alisma plantago-aquatica), sedge (smallflower umbrella sedge; Cyperus diiformis) and grass (sprangletop: Leptochloa uninervia) weeds each were planted in a plastic pots filled with heavy clay soil. The less than 1-inch tall plants grown under growth lights (12-h light/12-h dark) at 28° C. were sprayed with pure thaxtomin A solutions containing 0.05, 0.1, 0.2, and 0.4 mg thaxtomin A per mL of solvent (4% ethanol and 0.2% non-ionic surfactant). A solution of 4% ethanol+0.2% non-ionic surfactant without thaxtomin A was used as a control treatment. Same treatments were applied to three-inch tall rice plants grown submerged under growth lights at 28° C. […] All treatments were applied in three replicates. Treated plants were kept at 28° C. under growth lights and observed at three time points—5, 12 and 21 days after treatment—for visual symptoms of phytotoxicity and % control.
# rice (S102, M104, M206) = assay: Pot study, phytotoxicity on rice plants; type: in vivo; conditions: three rice cultivars (S102, M104, M206); 0.05-0.4 mg/mL; each evaluation time point (5, 12, 21 days)
# Description: as §3
# [3] = system: mono and dicotyledonous seedlings; conditions: cited from earlier work
compound,measurement,setting,value
CN1C(=O)[C@](O)(Cc2cccc(O)c2)N(C)C(=O)[C@@H]1Cc1c[nH]c2cccc([N+](=O)[O-])c12 [thaxtomin A],selectivity on transplanted rice,[1]; 1000 g a.i.,excellent selectivity
same,effect on crop growth (rice),[1]; 64 g/ha,0%
same,effect on crop growth (rice),[1]; 125 g/ha,0%
same,effect on crop growth (rice),[1]; 250 g/ha,0%
same,effect on crop growth (rice),[1]; 500 g/ha,0%
same,effect on crop growth (rice),[1]; 1000 g/ha,10%
same,rice selectivity,"[1]; transplanted 'M202' Japonica-type rice, 500 g a.i. per hectare",excellent rice selectivity
same,% control,CYI; 64 g/ha,45%
same,% control,CYI; 125 g/ha,45%
same,% control,CYI; 250 g/ha,95%
same,% control,CYI; 500 g/ha,100%
same,% control,CYI; 1000 g/ha,100%
same,% control,MAQ; 64 g/ha,20%
same,% control,MAQ; 125 g/ha,25%
same,% control,MAQ; 250 g/ha,40%
same,% control,MAQ; 500 g/ha,70%
same,% control,MAQ; 1000 g/ha,85%
same,% control,BYG; 64 g/ha,0%
same,% control,BYG; 125 g/ha,0%
same,% control,BYG; 250 g/ha,15%
same,% control,BYG; 500 g/ha,30%
same,% control,BYG; 1000 g/ha,40%
same,% control,"EO2; EO2, 64 g/ha",0%
same,% control,"EO2; EO2, 125 g/ha",0%
same,% control,"EO2; EO2, 250 g/ha",20%
same,% control,"EO2; EO2, 500 g/ha",20%
same,% control,"EO2; EO2, 1000 g/ha",30%
same,% control,ECC; 64 g/ha,0%
same,% control,ECC; 125 g/ha,0%
same,% control,ECC; 250 g/ha,35%
same,% control,ECC; 500 g/ha,60%
same,% control,ECC; 1000 g/ha,60%
same,% control,MON; 64 g/ha,0%
same,% control,MON; 125 g/ha,100%
same,% control,MON; 250 g/ha,100%
same,% control,MON; 500 g/ha,100%
same,% control,MON; 1000 g/ha,100%
same,% control,DSA; 64 g/ha,0%
same,% control,DSA; 125 g/ha,100%
same,% control,DSA; 250 g/ha,100%
same,% control,DSA; 500 g/ha,100%
same,% control,DSA; 1000 g/ha,100%
same,% control,CPD; 64 g/ha,0%
same,% control,CPD; 125 g/ha,85%
same,% control,CPD; 250 g/ha,100%
same,% control,CPD; 500 g/ha,100%
same,% control,CPD; 1000 g/ha,100%
same,% control,SCM; 64 g/ha,0%
same,% control,SCM; 125 g/ha,30%
same,% control,SCM; 250 g/ha,30%
same,% control,SCM; 500 g/ha,70%
same,% control,SCM; 1000 g/ha,95%
same,% control,SPZ; 64 g/ha,0%
same,% control,SPZ; 125 g/ha,90%
same,% control,SPZ; 250 g/ha,90%
same,% control,SPZ; 500 g/ha,100%
same,% control,SPZ; 1000 g/ha,100%
same,% control,WPL; 64 g/ha,0%
same,% control,WPL; 125 g/ha,70%
same,% control,WPL; 250 g/ha,95%
same,% control,WPL; 500 g/ha,100%
same,% control,WPL; 1000 g/ha,100%
same,% control,WCN; 125 g/ha,35%
same,% control,WCN; 250 g/ha,85%
same,% control,WCN; 500 g/ha,85%
same,% control,WCN; 1000 g/ha,95%
same,activity on Echinochloa spp.,[2],weakness
same,safety to transplanted rice,transplanted rice,complete safety
same,growth reductions to direct-seeded rice,direct-seeded rice,only slight growth reductions
same,% control,Echinochloa colonum,90-100%
same,activity on barnyardgrass,barnyardgrass,moderate activity
same,% control,"Cyperus sp; Cyperus sp, 5 DAYS, 0.05 mg/mL in 4% ethanol",5a %
same,% control,"Cyperus sp; Cyperus sp, 5 DAYS, 0.1 mg/mL in 4% ethanol",12a %
same,% control,"Cyperus sp; Cyperus sp, 5 DAYS, 0.2 mg/mL in 4% ethanol",16a %
same,% control,"Cyperus sp; Cyperus sp, 5 DAYS, 0.4 mg/mL in 4% ethanol",25a %
same,% control,"Cyperus sp; Cyperus sp, 12 DAYS, 0.05 mg/mL in 4% ethanol",15a %
same,% control,"Cyperus sp; Cyperus sp, 12 DAYS, 0.1 mg/mL in 4% ethanol",75b %
same,% control,"Cyperus sp; Cyperus sp, 12 DAYS, 0.2 mg/mL in 4% ethanol",77b %
same,% control,"Cyperus sp; Cyperus sp, 12 DAYS, 0.4 mg/mL in 4% ethanol",73b %
same,% control,"Cyperus sp; Cyperus sp, 21 DAYS, 0.05 mg/mL in 4% ethanol",53b %
same,% control,"Cyperus sp; Cyperus sp, 21 DAYS, 0.1 mg/mL in 4% ethanol",90c %
same,% control,"Cyperus sp; Cyperus sp, 21 DAYS, 0.2 mg/mL in 4% ethanol",88c %
same,% control,"Cyperus sp; Cyperus sp, 21 DAYS, 0.4 mg/mL in 4% ethanol",83c %
same,% control,"Cyperus sp; sedge (Cyperus difformis), highest concentration (0.4 mg/mL)",75-80%
same,phytotoxicity in rice cultivars,"rice (S102, M104, M206)",no phytotoxicity
same,"concentration causing cell swelling, necrosis and growth inhibition",[3],less than 1 uM
